Converted amounts (≈) assume the structure as drawn.
Tests used:
[1] = molecular target: T1, Leucine--tRNA ligase (Mycobacterium tuberculosis (strain ATCC 25618 / H37Rv)) (UniProt P9WFV1); assay: (§1) Inhibition of Mycobacterium tuberculosis LeuRS expressed in Escherichia coli Rosetta (DE3) cells at 100 uM incubated for 30 mins followed by incubation with ATP, leucine, tRNA, iPPase for 10 mins and measured after 30 mins by BIOMOL Green reagent based plate reader analysis relative to control
T1 sequence (whole entry): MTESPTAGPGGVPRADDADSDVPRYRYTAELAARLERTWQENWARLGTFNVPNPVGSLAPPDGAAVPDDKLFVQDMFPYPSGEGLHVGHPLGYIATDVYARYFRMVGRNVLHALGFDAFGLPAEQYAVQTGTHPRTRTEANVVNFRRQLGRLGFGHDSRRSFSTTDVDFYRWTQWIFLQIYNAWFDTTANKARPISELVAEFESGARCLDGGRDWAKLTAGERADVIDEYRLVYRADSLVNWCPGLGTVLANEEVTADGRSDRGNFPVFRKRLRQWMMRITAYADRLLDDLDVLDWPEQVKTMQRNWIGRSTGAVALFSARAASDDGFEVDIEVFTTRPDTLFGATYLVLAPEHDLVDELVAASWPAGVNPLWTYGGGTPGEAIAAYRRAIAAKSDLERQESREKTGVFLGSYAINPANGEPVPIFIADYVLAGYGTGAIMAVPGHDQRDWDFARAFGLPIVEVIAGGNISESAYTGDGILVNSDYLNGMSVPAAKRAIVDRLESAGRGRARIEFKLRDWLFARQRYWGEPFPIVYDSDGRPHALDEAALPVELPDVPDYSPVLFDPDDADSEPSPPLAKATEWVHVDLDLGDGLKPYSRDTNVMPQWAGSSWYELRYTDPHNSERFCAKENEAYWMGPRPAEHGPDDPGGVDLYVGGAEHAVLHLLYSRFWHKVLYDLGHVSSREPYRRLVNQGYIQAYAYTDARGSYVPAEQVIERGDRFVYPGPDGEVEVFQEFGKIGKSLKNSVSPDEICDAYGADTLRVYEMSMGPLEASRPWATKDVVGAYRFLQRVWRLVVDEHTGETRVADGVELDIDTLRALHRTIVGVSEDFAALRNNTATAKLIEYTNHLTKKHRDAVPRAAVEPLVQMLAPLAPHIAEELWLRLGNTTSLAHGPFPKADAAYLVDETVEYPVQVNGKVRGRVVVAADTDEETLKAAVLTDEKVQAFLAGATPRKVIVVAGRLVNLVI

[2] = test system: Mycobacterium tuberculosis H37Rv; assay: as §1, with “of recombinant” for “of”, “H37Rv C-terminal His6-tagged MetRS” for “LeuRS”, “BL21” for “Rosetta”, “(DE3) Star” for “(DE3)”, “methionine,” for “leucine,”
Leucine--tRNA ligase = molecular target: T2, Leucine--tRNA ligase (Mycobacterium tuberculosis (strain ATCC 25618 / H37Rv), UniProt P9WFV1); assay: (§2) Inhibition of Mycobacterium tuberculosis LeuRS expressed in Escherichia coli Rosetta (DE3) cells incubated for 30 mins followed by incubation with ATP, leucine, tRNA, iPPase for 10 mins and measured after 30 mins by BIOMOL Green reagent based plate reader analysis
T2 sequence (P9WFV1 whole entry): T1 sequence (whole entry)

[3] = as §2, with “of recombinant” for “of”, “H37Rv C-terminal His6-tagged MetRS” for “LeuRS”, “BL21” for “Rosetta”, “(DE3) Star” for “(DE3)”, “methionine,” for “leucine,”
Saccharomyces cerevisiae = assay: Inhibition of yeast inorganic pyrophosphatase assessed as inhibition of BIOMOL-Green signal using inorganic pyrophosphate as substrate at 50 uM incubated for 10 mins in MtbMetRS reaction buffer and measured after 30 mins by BIOMOL-Green reagent based plate reader analysis
[4] = Inhibition of BIOMOL-Green signal at 50 uM in MtbMetRS reaction buffer in presence of 10 uM phosphate standard measured after 30 mins by plate reader analysis
[5] = test system: Mycobacterium tuberculosis; assay type: functional; conditions: H37Rv ATCC 27294, 168 h
[6] = test system: Mycobacterium tuberculosis; assay type: functional; conditions: H37Rv ATCC 27294, 336 h
[7] = test system: Mycobacterium tuberculosis; assay type: functional; conditions: H37Rv ATCC 27294, 168 h; remark: listed apart in the source
[8] = test system: Mycobacterium tuberculosis; assay type: functional; conditions: H37Rv ATCC 27294, 168 h; remark: listed apart in the source
[9] = test system: Mycobacterium tuberculosis; assay type: functional; conditions: H37Rv ATCC 27294, 336 h; remark: listed apart in the source
[10] = test system: Mycobacterium tuberculosis; assay type: functional; conditions: H37Rv ATCC 27294, 168 h; remark: listed apart in the source
[11] = test system: Mycobacterium tuberculosis; assay type: functional; conditions: H37Rv ATCC 27294, 336 h; remark: listed apart in the source
[12] = test system: Mycobacterium tuberculosis; assay type: functional; conditions: H37Rv ATCC 27294, 336 h; remark: listed apart in the source
[13] = Cytotoxicity against human HepG2 cells assessed as reduction in cell viability incubated for 72 hrs by MTT assay; assay type: cell-based
[14] = Cytotoxicity against human HEK293 cells assessed as reduction in cell viability incubated for 72 hrs by MTT assay; assay type: cell-based

Cc1csc(N/N=C/c2ccc([N+](=O)[O-])cc2)n1
inhibition [1]: 20%
inhibition [2]: 92%

CCOc1ccc(/C=N/Nc2nc(C)c(C(C)=O)s2)cc1
inhibition [1]: 20%
inhibition [2]: 53%

Cc1csc(N/N=C/c2ccccc2Br)n1
IC50 (Leucine--tRNA ligase): 38.4 µM
IC50 ([3]; read-out: IC50): 123 µM

CCOC(=O)c1sc(N/N=C/c2ccc(Br)cc2)nc1C
inhibition (Saccharomyces cerevisiae): < 35%
inhibition [4]: < 35%
inhibition [1]: 39%
inhibition [2]: 111%

COc1cc(/C=N/Nc2nc(-c3ccc([N+](=O)[O-])cc3)cs2)cc([N+](=O)[O-])c1O
MIC [5]: ≥ 50 µM
MIC [6]: > 50 µM
MIC [7]: 50 µM (≈ 20.8 µg/mL)
MIC [8]: > 50 µM
IC50 (Leucine--tRNA ligase): 5.8 µM
MIC [9]: ≥ 50 µM
MIC [10]: 50 µM (≈ 20.8 µg/mL)
MIC [11]: > 50 µM
inhibition [1]: 103%
inhibition [2]: 94%
MIC [12]: > 50 µM
IC50 ([3]; read-out: IC50): 4.2 µM

Cc1csc(N/N=C/c2cc(Br)ccc2O)n1
inhibition [1]: 39%
inhibition [2]: 113%

CN(C)c1ccc(/C=N/Nc2nc(-c3ccccc3)cs2)cc1
inhibition (Saccharomyces cerevisiae): < 35%
inhibition [4]: < 35%
inhibition [1]: 65%
inhibition [2]: 123%

COc1ccc(OC)c(/C=N/Nc2nc(-c3cccnc3)cs2)c1
inhibition [1]: 74%
inhibition [2]: 115%

CCCCCCOc1ccc(/C=N/Nc2nccs2)cc1OC
inhibition [1]: 47%
inhibition [2]: 62%

COc1cccc(/C=N/Nc2nc(C)cs2)c1OC
inhibition [1]: 17%
inhibition [2]: 25%

CCc1ccc(/C=N/Nc2nc(-c3cccc([N+](=O)[O-])c3)cs2)cc1
inhibition [1]: 3%
inhibition [2]: 27%

CCOC(=O)Cc1csc(N/N=C/c2ccc(C(=O)O)cc2)n1
inhibition [1]: 12%
inhibition [2]: 22%

COc1cc(/C=N/Nc2nc(C)c(C(C)=O)s2)ccc1OCc1ccccc1Cl
inhibition (Saccharomyces cerevisiae): < 35%
inhibition [4]: < 35%
inhibition [1]: 87%
inhibition [2]: 113%

Oc1ccccc1/C=N/Nc1nc(-c2ccccc2)cs1
inhibition [1]: 7%
inhibition [2]: 51%

CCOC(=O)c1sc(N/N=C/c2cccc(O)c2)nc1C
inhibition [1]: 1%
inhibition [2]: 71%

NNC(=O)c1ccncc1 [ISONIAZID]
MIC [5]: 0.39 µM (≈ 0.0535 µg/mL)
MIC [6]: 0.39 µM (≈ 0.0535 µg/mL)
MIC [7]: 0.6 µM (≈ 0.0823 µg/mL)
MIC [8]: 0.07 µM (≈ 0.0096 µg/mL)
MIC [9]: 0.3 µM (≈ 0.0411 µg/mL)
MIC [10]: 0.1 µM (≈ 0.0137 µg/mL)
MIC [11]: 0.1 µM (≈ 0.0137 µg/mL)
MIC [12]: 0.6 µM (≈ 0.0823 µg/mL)

Brc1ccccc1/C=N/Nc1nc(-c2ccccc2)cs1
IC50 (Leucine--tRNA ligase): 24.1 µM
IC50 ([3]; read-out: IC50): 37.5 µM

COc1ccc(/C=N/Nc2nc(-c3ccc(F)cc3)cs2)cc1Br
MIC [5]: 9.4 µM (≈ 3.82 µg/mL)
MIC [6]: 25 µM (≈ 10.2 µg/mL)
MIC [7]: 19 µM (≈ 7.72 µg/mL)
MIC [8]: 0.78 µM (≈ 0.317 µg/mL)
IC50 (Leucine--tRNA ligase): 12.5 µM
MIC [9]: 2.3 µM (≈ 0.934 µg/mL)
CC50 at 72 h [13]: > 100 µM
MIC [10]: 1.56 µM (≈ 0.634 µg/mL)
MIC [11]: 2.3 µM (≈ 0.934 µg/mL)
inhibition [1]: 109%
inhibition [2]: 121%
CC50 at 72 h [14]: > 100 µM
MIC [12]: 37 µM (≈ 15 µg/mL)
IC50 ([3]; read-out: IC50): 10.7 µM

COc1cc(/C=N/Nc2nccs2)cc(Br)c1OCc1ccccc1
inhibition (Saccharomyces cerevisiae): < 35%
inhibition [4]: < 35%
inhibition [1]: 55%
inhibition [2]: 106%

COc1ccc(/C=N/Nc2nc(C)cs2)cc1Br
IC50 (Leucine--tRNA ligase): 95 µM
IC50 [3]: Not Active

O=[N+]([O-])c1cc(/C=N/Nc2nc(-c3ccccc3)cs2)ccc1O
inhibition (Saccharomyces cerevisiae): < 35%
inhibition [4]: < 35%
inhibition [1]: 53%
inhibition [2]: 72%

CCOC(=O)c1sc(N/N=C/c2ccccc2C(F)(F)F)nc1C
inhibition [1]: 34%
inhibition [2]: 45%

COc1cc(/C=N/Nc2nc(-c3ccc(Br)cc3)cs2)cc([N+](=O)[O-])c1O
inhibition (Saccharomyces cerevisiae): < 35%
inhibition [4]: < 35%
inhibition [1]: 113%
inhibition [2]: 110%

CCOC(=O)c1sc(N/N=C/c2ccccc2Br)nc1C
inhibition [1]: 67%
inhibition [2]: 99%

Cc1sc(N/N=C/c2cccc(O)c2)nc1-c1ccccc1
inhibition (Saccharomyces cerevisiae): < 35%
inhibition [4]: < 35%
inhibition [1]: 65%
inhibition [2]: 112%

COC(=O)c1sc(N/N=C/c2ccc([N+](=O)[O-])cc2)nc1C
inhibition [1]: 88%
inhibition [2]: 75%

COc1ccc(/C=N/Nc2nccs2)cc1Br
inhibition [1]: 29%
inhibition [2]: 90%

CCOC(=O)c1sc(N/N=C/c2ccccc2)nc1C
inhibition [1]: 19%
inhibition [2]: 73%

O=[N+]([O-])c1ccccc1/C=N/Nc1nccs1
inhibition [1]: 45%
inhibition [2]: 51%

COc1cc(/C=N/Nc2nccs2)ccc1OCc1ccccc1Cl
inhibition (Saccharomyces cerevisiae): < 35%
inhibition [4]: < 35%
inhibition [1]: 64%
inhibition [2]: 102%

CCOC(=O)c1sc(N/N=C/c2ccc(C(=O)O)cc2)nc1C
inhibition [1]: -7%
inhibition [2]: 6%

COc1ccc(/C=N/Nc2nc(C)c(C)s2)cc1
inhibition [1]: 1%
inhibition [2]: 1%

Cc1csc(N/N=C/c2ccc(C(=O)O)cc2)n1
inhibition [1]: -4%

COc1cc(/C=N/Nc2nccs2)ccc1OC(=O)c1ccc(Cl)cc1Cl
inhibition (Saccharomyces cerevisiae): < 35%
inhibition [4]: < 35%
inhibition [1]: 73%
inhibition [2]: 142%

O=[N+]([O-])c1cccc(-c2csc(N/N=C/c3ccccc3Br)n2)c1
MIC [5]: 37 µM (≈ 14.9 µg/mL)
MIC [6]: 50 µM (≈ 20.2 µg/mL)
MIC [7]: ≥ 50 µM
MIC [8]: 37 µM (≈ 14.9 µg/mL)
IC50 (Leucine--tRNA ligase): 8.9 µM
MIC [9]: > 50 µM
MIC [10]: > 50 µM
MIC [11]: > 50 µM
inhibition [1]: 80%
inhibition [2]: 93%
MIC [12]: > 50 µM
IC50 ([3]; read-out: IC50): 6.5 µM

O=C(O)c1ccc(/C=N/Nc2nc(-c3ccc(Cl)cc3Cl)cs2)cc1
MIC [5]: > 50 µM
MIC [6]: > 50 µM
MIC [7]: > 50 µM
MIC [8]: > 50 µM
IC50 (Leucine--tRNA ligase): 27.3 µM
MIC [9]: > 50 µM
MIC [10]: > 50 µM
MIC [11]: > 50 µM
inhibition [1]: 101%
inhibition [2]: 92%
MIC [12]: > 50 µM
IC50 ([3]; read-out: IC50): 22.7 µM

COC(=O)c1sc(N/N=C/c2ccc(Br)cc2)nc1C
inhibition (Saccharomyces cerevisiae): < 35%
inhibition [4]: < 35%
inhibition [1]: 46%
inhibition [2]: 88%

CCOC(=O)c1sc(N/N=C/c2cc(Br)c(O)c(Br)c2)nc1C
inhibition [1]: 55%
inhibition [2]: 51%

CCOC(=O)c1sc(N/N=C/c2cc(Br)c(O)c(OC)c2)nc1C
inhibition [1]: 54%
inhibition [2]: 94%

O=[N+]([O-])c1cccc(-c2csc(N/N=C/c3cccc(Oc4ccccc4)c3)n2)c1
inhibition [1]: 11%
inhibition [2]: 65%

COC(=O)c1sc(N/N=C/c2ccc(C(=O)O)cc2)nc1C
inhibition [1]: 12%

— ChEMBL document CHEMBL4373683, “Dual-target inhibitors of mycobacterial aminoacyl-tRNA synthetases among N-benzylidene-N'-thiazol-2-yl-hydrazines” (Medchemcomm, 2019)
